Read-outs that look alike come from different tables or passages of the source.
Columns and labels:
[1] = logP determination by HPLC on reversed-phase column (EEC Directive 79/831 Annex V.A8); type: physicochemical; details: pH 2.3, C18, 43° C., 0.1% aqueous phosphoric acid/acetonitrile, read-out: logP (pH2.3)
Description: The logP values given in the Preparation Examples were determined in accordance with EEC Directive 79/831 Annex V.A8 by HPLC (High Performance Liquid Chromatography) using a reversed-phase column (C 18). Temperature: 43° C.
Mobile phases for the determination in the acidic range: 0.1% aqueous phosphoric acid, acetonitrile; linear gradient from 10% acetonitrile to 90% acetonitrile.
Calibration was carried out using unbranched alkan-2-ones (having 3 to 16 carbon atoms) with known logP values (determination of the logP values by the retention times using linear interpolation between two successive alkanones).

[2] = test system: Podosphaera leucotricha; assay: Podosphaera test (apple)/protective; type: in vivo; details: application rate 100 g/ha, protective, evaluation 10 days after inoculation
Description: Podosphaera Test (Apple)/Protective
(§1) • 24.5 parts by weight of acetone • 24.5 parts by weight of dimethylacetamide Emulsifier: • 1.0 part by weight of alkylaryl polyglycol ether
(§2) To produce a suitable preparation of active compound, 1 part by weight of active compound is mixed with the stated amounts of solvents and emulsifier, and the concentrate is diluted with water to the desired concentration.
(§3) To test for protective activity, young plants are sprayed with the preparation of active compound at the stated application rate. After the spray coating has dried on, the plants are inoculated with an aqueous spore suspension of the apple mildew pathogen Podosphaera leucotricha. The plants are then placed in a greenhouse at about 23° C. and a relative atmospheric humidity of about 70%.
(§4) Evaluation is carried out 10 days after the inoculation. 0% means an efficacy which corresponds to that of the control, whereas an efficacy of 100% means that no infection is observed.

[3] = test system: Alternaria solani; assay: Alternaria test (tomato)/protective; type: in vivo; details: application rate 750 g/ha, protective, evaluation 7 days after inoculation
Description: Alternaria Test (Tomato)/Protective
• 49 parts by weight of N,N-dimethylformamide Emulsifier: • 1 part by weight of alkylaryl polyglycol ether
(§5) To produce a suitable preparation of active compound, 1 part by weight of active compound is mixed with the stated amounts of solvent and emulsifier, and the concentrate is diluted with water to the desired concentration.
To test for protective activity, young tomato plants are sprayed with the preparation of active compound at the stated application rate. 1 day after the treatment, the plants are inoculated with a spore suspension of Alternaria solani and then remain at 100% relative humidity and at 20° C. for 24 h. The plants then remain at 96% relative atmospheric humidity and a temperature of 20° C.
(§6) Evaluation is carried out 7 days after the inoculation. 0% means an efficacy which corresponds to that of the control, whereas an efficacy of 100% means that no infection is observed.

[4] = test system: Sphaerotheca fuliginea; assay: Sphaerotheca test (cucumber)/protective; type: in vivo; details: Podosphaera fuliginea, 168 h, application rate 100 g/ha, protective, evaluation 7 days after inoculation, read-out: Efficacy in %
Description: Sphaerotheca Test (Cucumber)/Protective
as §1, §2
as §3, with “Sphaerotheca fuliginea.” for “the apple mildew pathogen Podosphaera leucotricha.”
as §6

[5] = test system: Venturia inaequalis; assay: Venturia test (apple)/protective; type: in vivo; details: application rate 100 g/ha, protective, evaluation 10 days after inoculation
Description: Venturia Test (Apple)/Protective
as §1, §2
To test for protective activity, young plants are sprayed with the preparation of active compound at the stated application rate. After the spray coating has dried on, the plants are inoculated with an aqueous conidia suspension of the apple scab pathogen Venturia inaequalis and then remain in an incubation cabin at about 20° C. in 100% relative atmospheric humidity for 1 day.
The plants are then placed in a greenhouse at about 21° C. and a relative atmospheric humidity of about 90%.
as §4

[6] = test system: Coriolus versicolor; assay: Inhibitory test using a giant colony of Basidiomycetes; type: cell-based; details: Trametes versicolor; 6 ppm active compound in nutrient agar; 26° C.; growth of fungal threads
Description: Inhibitory Test Using a Giant Colony of Basidiomycetes Mycelium pieces were punched out of a giant colony of the Basidiomycetes species Coriolus versicolor and incubated at 26° C. on a nutrient agar medium containing malt extract peptone. The inhibition of the growth of the fungal threads on active-compound-containing nutrient media was compared to the longitudinal growth on nutrient media without added active compound and rated as inhibition in percent. In this test, for example, the following compounds according to the invention of the Preparation Examples show good activity: […]

[7] = test system: Puccinia recondita; assay: Puccinia test (wheat)/protective; type: in vivo; details: application rate 500 g/ha, protective, evaluation 10 days after inoculation
Description: Puccinia Test (Wheat)/Protective
• 25 parts by weight of N,N-dimethylacetamide Emulsifier: • 0.6 part by weight of alkylaryl polyglycol ether
as §5
To test for protective activity, young plants are sprayed with the preparation of active compound at the stated application rate. After the spray coating has dried on, the plants are sprayed with a conidia suspension of Puccinia recondita. The plants remain in an incubation cabin at 20° C. and 100% relative atmospheric humidity for 48 hours.
The plants are then placed in a greenhouse at a temperature of about 20° C. and a relative atmospheric humidity of 80% to promote the development of rust pustules.
as §4

Row | Structure (SMILES) | chromatographic logP ([1]; reversed-phase C18 HPLC column) | Efficacy in % [2] [%] | Efficacy in % [3] [%] | pest or weed control at 100 g/ha [4] [%] | Efficacy in % [5] [%] | inhibition at 6 ppm [6] [%] | Efficacy in % [7] [%] | chromatographic logP [1]
1 | Cn1cc(C(=O)Nc2ccccc2-c2ccc3c(c2)OC(F)(F)O3)c(C(F)(F)F)n1 [Example 2, N-[2-(2,2-difluoro-1,3-benzodioxol-5-yl)-phenyl]-1-methyl-3-(trifluoromethyl)-1H-pyrazol-4-carboxamide] | 3.37 | 100 | 100 | 100 | 100 | – | – | –
2 | Cn1cc(C(=O)Nc2ccccc2I)c(C(F)(F)F)n1 [Example (IV-1), N-(2-iodophenyl)-1-methyl-3-(trifluoromethyl)-1H-pyrazole-4-carboxamide] | 2.46 | – | – | – | – | – | – | –
3 | OB(O)c1ccc2c(c1)OC(F)(F)C(F)(F)O2 [Example (V-1), 2,2,3,3-tetrafluoro-2,3-dihydro-1,4-benzodioxin-6-yl-boronic acid] | 2.49 | – | – | – | – | – | – | –
4 | Cc1nc(C(F)(F)F)c(C(=O)Nc2ccccc2-c2ccc3c(c2)OC(F)(F)C(F)(F)O3)s1 [Example 10] | 3.94 | 100 | – | 100 | 100 | – | – | –
5 | Cc1ccsc1C(=O)Nc1ccccc1-c1ccc2c(c1)OC(F)(F)O2 [Example 4] | 3.99 | – | – | 100 | 98 | – | – | –
6 | Cc1nc(C(F)(F)F)c(C(=O)Nc2ccccc2-c2ccc3c(c2)OC(F)(F)O3)s1 [Example 5] | 3.81 | 100 | – | 100 | 100 | – | – | –
7 | O=C(Nc1ccccc1-c1ccc2c(c1)OC(F)(F)C(F)(F)O2)c1ccccc1C(F)(F)F [Example 6] | – | 100 | – | 100 | 99 | – | – | 5.93
8 | O=C(Nc1ccccc1-c1ccc2c(c1)OC(F)(F)O2)c1ccccc1C(F)(F)F [Example 3] | – | 100 | 94 | 98 | – | – | – | 3.94

Continued, in another order:

Row | chromatographic logP ([1]; reversed-phase C18 HPLC column) | Structure (SMILES) | Efficacy in % [2] [%] | Efficacy in % [3] [%] | pest or weed control at 100 g/ha [4] [%] | Efficacy in % [5] [%] | inhibition at 6 ppm [6] [%] | Efficacy in % [7] [%] | chromatographic logP [1]
9 | 2.34 | Cc1nn(C)c(F)c1C(=O)Nc1c(F)cc(F)cc1-c1ccc2c(c1)OCO2 [Example 15] | – | 95 | – | – | – | – | –
10 | 3.22 | Cc1nn(C)c(F)c1C(=O)Nc1ccccc1-c1ccc2c(c1)OC(F)(F)O2 [Example 19] | 100 | – | 92 | 96 | 100 | – | –
11 | 3.77 | Cc1nn(C)c(F)c1C(=O)Nc1ccccc1-c1ccc2c(c1)OC(F)(F)C(F)(F)O2 [Example 1, 5-fluoro-1,3-dimethyl-N-[2-(2,2,3,3-tetrafluoro-2,3-dihydro-1,4-benzodioxin-6-yl)phenyl]-1H-pyrazole-4-carboxamide] | 100 | – | 98 | 100 | 100 | 100 | –

— US7208169B2, “Biphenyl carboxamides” (priority 2002, dated 2007)
